For eleven compounds, IC50 and Kd results are on record in patent US20110021776A1, “COMPOSITIONS FOR THE TREATMENT OF CENTRAL NERVOUS SYSTEM DISEASES AND DISORDERS” (MediProPharma, Inc., priority 2006, published 2011).

SMILES strings stand for the structures.

The first experiment has as its target T1, human DYRK1A (Homo sapiens, UniProt Q13627). Description: Human DYRK1A kinase functional assay (CEREP, LANCE detection). The experiment is classed as biochemical. Also noted: CEREP (France), contract assay provider. How it is done:
(II) Human DYRK1A Kinase Functional Assay and IC50 Measurements.
Compound profiling in a human DYRK1A kinase functional assay was performed by CEREP (France). The effects of compounds on the activity of human DYRK1A were evaluated and quantified by measuring the phosphorylation of the substrate Ulight-CFFKNIVTPRTPPPSQGK-amide (MBP) using a human recombinant enzyme and the LANCE® detection method, as described by Himpel et al, J. Biol. Chem., 275: 2431 (2000). The inhibitory activity of the compounds was expressed as a percent inhibition of the control kinase activity. Activities of the compounds at 50% or higher inhibition were selected for IC50 determination. Compounds were tested at 6 concentrations in duplicate for IC50 determination. The standard inhibitory reference compound was staurosporine, which was tested in each experiment at 8 concentrations to obtain an inhibition curve from which its IC50 value was calculated.
In certain embodiments, compounds have a low IC50 value in the DYRK1A kinase functional assay. […] The human DYRK1A kinase functional assay has been used to test the compounds of the Examples disclosed.
The compound `Cc1nc2c(c3c1[nH]c1cccc(F)c13)C(=O)CC(C)(C)C2` [Example 2, 11-fluoro-3,3,6-trimethyl-2,3,4,7-tetrahydroindolo[2,3-c]quinolin-1-one] yielded a half-maximal inhibitory concentration (IC50) of under 5 µM.

The compound `Cc1nc2c(c3c1[nH]c1ccc(F)cc13)C(=O)CC(C)(C)C2` [Example 4, 10-fluoro-3,3,6-trimethyl-2,3,4,7-tetrahydroindolo[2,3-c]quinolin-1-one] displayed a 50% inhibitory concentration (IC50) of under 2 µM.

On to `Cc1nc2c(c3c1[nH]c1ccccc13)C(=O)CC(C)C2` (stereo not shown) [Example 8, 3,6-dimethyl-2,3,4,7-tetrahydroindolo[2,3-c]quinolin-1-one], for which the IC50 was under 5 µM.

On to `CCc1nc2c(c3c1[nH]c1ccccc13)C(=O)CC(C)(C)C2` [Example 10, 6-ethyl-3,3-dimethyl-2,3,4,7-tetrahydro-indolo[2,3-c]quinolin-1-one], for which the IC50 is under 5 µM. Same read-out and setting: the value for `CC1(C)CC(=O)c2c(ncc3[nH]c4ccccc4c23)C1` [Example 11, 3,3-dimethyl-2,3,4,7-tetrahydroindolo[2,3-c]quinolin-1-one] was under 5 µM.

As for `Cc1nc2c(c3c1[nH]c1ccccc13)C(=O)CC1(CCCCC1)C2` [Example 12, 6-methyl-3′H-spirocyclohexane-2,3,4,7-tetrahydroindolo[2,3-c]quinolin-1-one], the IC50 is under 10 µM. On the same count and under the same terms, the value for `Cc1nc2c(c3c1[nH]c1ccc(Cl)cc13)C(=O)CC(C)(C)C2` [Example 13, 10-chloro-3,3,6-trimethyl-2,3,4,7-tetrahydroindolo[2,3-c]quinolin-1-one] was under 5 µM; that for `COc1ccc2[nH]c3cnc4c(c3c2c1)C(=O)CC(C)(C)C4` [Example 14, 10-methoxy-3,3-dimethyl-2,3,4,7-tetrahydroindolo[2,3-c]quinolin-1-one] was under 10 µM; that for `CCc1nc2c(c3c1[nH]c1cccc(F)c13)C(=O)CC(C)(C)C2` [Example 15, 11-fluoro-6-ethyl-3,3,-dimethyl-2,3,4,7-tetrahydroindolo[2,3-c]quinolin-1-one] was under 5 µM. On the same count and under the same terms, the value for `CCc1nc2c(c3c1[nH]c1ccc(F)cc13)C(=O)CC(C)(C)C2` [Example 16, 10-fluoro-6-ethyl-3,3,-dimethyl-2,3,4,7-tetrahydroindolo[2,3-c]quinolin-1-one] was under 2 µM.

The target in the next experiment is T1, human DYRK1A. Put plainly: Human DYRK1A kinase competitive binding assay (Ambit Biosciences). On the set-up: Ambit Biosciences (San Diego, Calif., USA), contract assay provider. How it is done: (I) Human DYRK1A Kinase Binding Assay and Binding Constant Measurements. Human DYRK1A kinase profiles in a competitive binding assay were performed by Ambit Biosciences (San Diego, Calif., USA). Activity was recorded via a competition binding assay of human DYRK1A kinase that was fused to a proprietary tag. Measurements of the amount of DYRK1A kinase bound to an immobilized, active-site directed ligand in the presence and absence of the test compound provided a percentage of DMSO control for binding of ligand. Activities between 1% and 10% were selected for Kd determination. Dendrogram representations were generated by an in-house visualization tool designated as PhyloChem. In certain embodiments, compounds have a low Kd value in the DYRK1A kinase binding assay. […] The human DYRK1A kinase binding assay has been used to test the compounds of the Examples disclosed.
Consider `Cc1nc2c(c3c1[nH]c1cccc(F)c13)C(=O)CC(C)(C)C2` [Example 2, 11-fluoro-3,3,6-trimethyl-2,3,4,7-tetrahydroindolo[2,3-c]quinolin-1-one], for which the Kd is under 1 µM. The same measure, in the same setting: the value for `Cc1nc2c(c3c1[nH]c1ccc(F)cc13)C(=O)CC(C)(C)C2` [Example 4, 10-fluoro-3,3,6-trimethyl-2,3,4,7-tetrahydroindolo[2,3-c]quinolin-1-one] was under 1 µM; that for `COc1ccc2[nH]c3c(C)nc4c(c3c2c1)C(=O)CC(C)(C)C4` [Example 6, 10-methoxy-3,3,6-trimethyl-2,3,4,7-tetrahydroindolo[2,3-c]quinolin-1-one] was under 5 µM.
